The source of these data is patent US11078222B2, “Hydroxybenzoic acid derivatives, methods and uses thereof” (UNiVERSIDADE DO PORTO, priority 2016, dated 2021).

This assay concerns mitochondrial permeability transition pore (mPTP). The experiment in a line: Mitochondrial swelling / mitochondrial permeability transition pore opening. The class given is biochemical, rat. Conditions: 2.5, 5, 10 μM pre-incubated 5 min before Ca2+. The protocol: In an embodiment, and as an example, the effects of some AntiOxBENs on mitochondrial permeability transition pore (mPTP) opening were evaluated. In general, the tested AntiOxBENs had no effect per se on mPTP opening for all tested concentrations.
Increasing concentrations of AntiOxBENs (2.5-10 μM) were added to the reaction medium (200 mM sucrose, 1 mM KH2PO4, 10 mM Tris (pH 7.4), 5 mM succinate and 10 μM EGTA supplemented with 1.5 μM rotenone), in the presence of RLM (1 mg), and allowed to incubate for a 5 min period before the assay. The experiments were initiated by the addition of a suitable concentration of Ca^2+ (15-50 μM), titrated every day. […] The reaction was stirred continuously and the temperature maintained at 37° C.

Turning to `O=C(CCCCC[P+](c1ccccc1)(c1ccccc1)c1ccccc1)NCCCCCCNC(=O)c1cc(O)c(O)c(O)c1.[Br-]` [AntiOxBEN3, [5-(6-(3,4,5-trihydroxybenzamido)hexylamino)carbonylpentyl]triphenylphosphonium bromide], the “concentration-dependent inhibition of calcium-dependent mPTP opening” value is “caused a concentration-dependent inhibition”.
